Experimental data published in patent publication US20080194701A1, “Bifunctional Enzyme with Y-Glutamylcysteine Synthetase and Glutathione Synthetase Activity and Uses Thereof” (priority 2004, published 2008).
Where two headings read alike, the source gives them in different places.

Key:
E. coli GS = E. coli GS (Escherichia coli, UniProt P04425); conditions: cited from earlier work; for Km: substrate Km
S. agalactiae γ-GCS-GS [1] = biological target: T1, S. agalactiae γ-GCS-GS (Streptococcus agalactiae serotype V, UniProt Q8DXM9); assay: GS activity assay based on ADP formation, S. agalactiae γ-GCS-GS; conditions: GSH concentrations of up to 100 mM
T1 sequence (Q8DXM9 1-750): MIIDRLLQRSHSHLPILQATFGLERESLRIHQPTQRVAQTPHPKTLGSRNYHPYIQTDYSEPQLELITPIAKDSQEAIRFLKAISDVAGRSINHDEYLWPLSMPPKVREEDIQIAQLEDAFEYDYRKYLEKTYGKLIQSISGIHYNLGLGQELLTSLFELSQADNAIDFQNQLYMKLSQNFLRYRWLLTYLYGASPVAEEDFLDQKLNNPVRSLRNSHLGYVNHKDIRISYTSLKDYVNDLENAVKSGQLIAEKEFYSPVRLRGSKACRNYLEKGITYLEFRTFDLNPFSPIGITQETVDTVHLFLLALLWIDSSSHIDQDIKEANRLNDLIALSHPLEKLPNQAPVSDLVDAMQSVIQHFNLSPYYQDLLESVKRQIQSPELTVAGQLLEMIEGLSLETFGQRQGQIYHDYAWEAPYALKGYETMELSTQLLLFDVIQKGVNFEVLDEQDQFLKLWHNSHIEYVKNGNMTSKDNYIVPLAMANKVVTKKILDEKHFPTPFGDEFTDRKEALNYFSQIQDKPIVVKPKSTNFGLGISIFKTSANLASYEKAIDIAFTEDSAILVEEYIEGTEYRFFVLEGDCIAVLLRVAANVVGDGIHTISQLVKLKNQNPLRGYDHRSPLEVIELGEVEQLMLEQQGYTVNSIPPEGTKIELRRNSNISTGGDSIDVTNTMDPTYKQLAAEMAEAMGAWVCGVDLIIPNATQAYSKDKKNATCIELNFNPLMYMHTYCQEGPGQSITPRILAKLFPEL
Method: Transformed cells were grown, induced, and harvested by centrifugation, and were then broken using a French pressure cell. […] The column was equilibrated with 50 mM Tris HCl buffer, pH 7.4, containing 5 mM L-glutamate, 5 mM MgCl2, and 5 mM β-mercaptoethanol, and the high-speed supernatant was loaded. After washing the column with equilibration buffer to remove proteins lacking a His-tag, the expressed His8-tagged protein was eluted using the same buffer supplemented with 200 mM imidazole. Amount of γ-GCS activity was determined as described in Example 2. […] It was observed that the purified enzyme catalyzed both the γ-GCS and the GS reactions. Since the GS-specific activity was higher than the specific activity for any known GS enzyme, it was apparent that the expressed 85 kDa S. agalactiae protein (rather than a trace impurity), accounted for the observed GS activity. Using the pREP4 auxiliary plasmid instead of the pRARE plasmid gave somewhat lower yields (325 mg total protein vs. 442 mg protein using pRARE) but the specific activities of the γ-GCS activity (870 units/mg) and GS activities (1143 units/mg) were similar.
Results for E. coli GS are from H. Gushima et al. J. Appl. Biochem. 5, 210-218 (1983). Results for rat GS are from J. L. Luo et al. Biochem. Biophys. Res. Commun. 275, 577-581 (2000). Results for human GS are from R. Njalsson et al. Biochem. Biophys. Res. Commun. 289, 80-84 (2001) and R. Njalsson et al. Biochem. J. 349, 275-279 (2000).

S. mutans γ-GCS-GS = S. mutans γ-GCS-GS (Streptococcus mutans serotype c, UniProt Q8DW15); assay: γ-GCS activity of S. mutans γ-GCS-GS
Description: 3′ and 5′ […] 3′ and introduced unique Bgl II and Hind III sites (underlined), respectively.

E. coli γ-GCS = E. coli γ-GCS (Escherichia coli, UniProt P0A6W9); conditions: cited from earlier work; for Km: substrate Km; for Vmax: unit = 1 μmol product per hour
Human γ-GCS = biological target: T2, Human γ-GCS (Homo sapiens, UniProt P48506); conditions: cited from earlier work; for Ki: read-out: Ki; for Km: substrate Km; for Vmax: unit = 1 μmol product per hour
T2 sequence (P48506 1-637): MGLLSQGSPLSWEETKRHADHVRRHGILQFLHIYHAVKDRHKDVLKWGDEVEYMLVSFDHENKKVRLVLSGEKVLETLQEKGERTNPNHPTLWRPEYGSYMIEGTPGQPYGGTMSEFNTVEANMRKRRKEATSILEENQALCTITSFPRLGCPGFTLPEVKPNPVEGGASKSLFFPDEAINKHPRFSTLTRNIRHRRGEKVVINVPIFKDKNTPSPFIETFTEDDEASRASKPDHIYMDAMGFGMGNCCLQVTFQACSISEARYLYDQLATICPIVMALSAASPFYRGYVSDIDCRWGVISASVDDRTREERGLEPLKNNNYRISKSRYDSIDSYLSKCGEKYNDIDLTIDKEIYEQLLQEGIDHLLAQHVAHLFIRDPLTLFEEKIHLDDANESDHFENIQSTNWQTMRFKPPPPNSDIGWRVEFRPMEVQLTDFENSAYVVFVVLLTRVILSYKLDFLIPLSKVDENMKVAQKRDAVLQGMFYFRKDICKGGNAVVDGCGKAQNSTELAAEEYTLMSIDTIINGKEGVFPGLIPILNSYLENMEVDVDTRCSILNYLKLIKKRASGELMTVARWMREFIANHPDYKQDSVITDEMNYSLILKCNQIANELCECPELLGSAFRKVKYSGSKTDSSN
T2 sequence (P48507 1-274 partner): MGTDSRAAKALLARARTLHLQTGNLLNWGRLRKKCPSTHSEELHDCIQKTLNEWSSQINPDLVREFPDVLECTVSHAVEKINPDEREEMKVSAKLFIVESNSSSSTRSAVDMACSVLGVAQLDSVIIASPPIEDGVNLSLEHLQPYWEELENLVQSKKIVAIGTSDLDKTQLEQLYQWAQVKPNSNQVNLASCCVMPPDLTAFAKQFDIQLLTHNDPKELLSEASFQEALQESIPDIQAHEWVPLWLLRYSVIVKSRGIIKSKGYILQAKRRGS

E. faecalis γ-GCS-GS = E. faecalis γ-GCS-GS (Enterococcus faecalis, UniProt Q82ZG8); assay: γ-GCS activity of E. faecalis γ-GCS-GS
S. agalactiae γ-GCS-GS [2] = biological target: T1, S. agalactiae γ-GCS-GS; assay: γ-GCS activity assay based on ADP formation, S. agalactiae γ-GCS-GS; format: biochemical; design: corresponded to full-length S. agalactiae γ-GCS-GS with an N-terminal His8-tag; made in house; host or cells: E. coli SG13009 with pQE30-gshAB plus pREP4 or pRARE; conditions: for Vmax: unit = 1 μmol product per hour
Method: In Table 1, a unit was defined as the amount of enzyme activity required to catalyze the formation of 1 μmol of product per hour. Specific activity was shown as units per mg protein. Activity was determined at 37° C. based on ADP formation in reaction mixtures containing L-glutamate and L-cysteine and using pyruvate kinase and lactate dehydrogenase to couple ADP formation to NADH oxidation, which was monitored at 340 nm.
Exp. Purif. 13, 268-276 (1998).
At set time points ranging from one to 30 minutes, 5 μl aliquots were removed and assayed for residual enzyme activity using the standard γ-GCS assay based on ADP formation.

N[C@@H](CS)C(=O)O = assay: purified protein, by the assay type; conditions: other: substrate Km, γ-GCS activity
Method: Expression yielded less soluble protein than seen with S. agalactiae and E. faecalis γ-GCS-GS, but the enzyme was nonetheless isolated in about 10% purity as judged by Coomasie blue stained SDS-PAGE gels. Although both γ-GCS and GS activities were determined to be present, only the γ-GCS activity has been characterized to date in terms of substrate affinities.

Rat GS = biological target: T3, Rat GS (Rattus norvegicus, UniProt P46413); conditions: cited from earlier work
T3 sequence (P46413 1-474): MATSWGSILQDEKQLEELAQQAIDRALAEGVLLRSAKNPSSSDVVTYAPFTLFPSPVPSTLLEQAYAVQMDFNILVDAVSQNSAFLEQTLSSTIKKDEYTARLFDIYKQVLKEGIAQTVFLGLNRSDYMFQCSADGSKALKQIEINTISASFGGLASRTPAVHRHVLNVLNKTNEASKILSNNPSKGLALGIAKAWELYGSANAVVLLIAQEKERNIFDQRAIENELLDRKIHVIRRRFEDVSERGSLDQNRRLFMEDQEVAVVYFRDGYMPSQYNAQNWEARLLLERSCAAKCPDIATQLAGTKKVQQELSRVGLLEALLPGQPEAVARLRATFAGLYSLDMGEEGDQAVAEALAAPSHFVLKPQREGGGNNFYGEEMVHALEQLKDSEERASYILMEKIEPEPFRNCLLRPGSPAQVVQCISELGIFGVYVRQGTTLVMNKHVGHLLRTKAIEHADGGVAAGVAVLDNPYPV

Human GS = biological target: T4, Human GS (Homo sapiens, UniProt P48637); conditions: cited from earlier work
T4 sequence (P48637 1-474): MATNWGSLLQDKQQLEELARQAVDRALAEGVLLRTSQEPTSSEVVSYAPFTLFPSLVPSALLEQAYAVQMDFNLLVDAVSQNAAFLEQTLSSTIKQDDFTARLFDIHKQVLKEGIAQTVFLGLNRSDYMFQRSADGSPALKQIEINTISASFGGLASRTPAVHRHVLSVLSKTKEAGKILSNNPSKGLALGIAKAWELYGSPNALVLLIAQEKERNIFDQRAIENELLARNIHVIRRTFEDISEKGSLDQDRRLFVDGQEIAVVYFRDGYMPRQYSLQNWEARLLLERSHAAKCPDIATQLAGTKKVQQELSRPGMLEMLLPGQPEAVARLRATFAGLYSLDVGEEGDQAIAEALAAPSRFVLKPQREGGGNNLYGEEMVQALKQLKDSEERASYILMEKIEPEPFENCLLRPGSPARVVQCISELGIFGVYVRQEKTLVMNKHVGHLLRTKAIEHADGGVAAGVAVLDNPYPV

Human γ-GCSc = biological target: T5, Human γ-GCSc (Homo sapiens, UniProt P48506); conditions: catalytic subunit only, cited from earlier work; for Km: substrate Km
T5 sequence (P48506 1-637): T2 sequence (P48506 1-637)

[3] = MSO also pre-incubated with MgATP, absence of L-glutamate

Chain of E. coli GS (P04425 whole entry): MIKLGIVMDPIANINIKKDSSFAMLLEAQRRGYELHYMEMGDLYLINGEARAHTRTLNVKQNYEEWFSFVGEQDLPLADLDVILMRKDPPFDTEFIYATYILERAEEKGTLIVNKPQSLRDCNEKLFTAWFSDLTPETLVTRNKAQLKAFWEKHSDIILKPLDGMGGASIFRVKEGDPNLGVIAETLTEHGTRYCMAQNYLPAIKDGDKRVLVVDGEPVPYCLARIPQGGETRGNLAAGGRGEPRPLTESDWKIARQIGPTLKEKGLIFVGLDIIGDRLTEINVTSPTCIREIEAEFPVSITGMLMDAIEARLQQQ
Chain of S. mutans γ-GCS-GS (Q8DW15 whole entry): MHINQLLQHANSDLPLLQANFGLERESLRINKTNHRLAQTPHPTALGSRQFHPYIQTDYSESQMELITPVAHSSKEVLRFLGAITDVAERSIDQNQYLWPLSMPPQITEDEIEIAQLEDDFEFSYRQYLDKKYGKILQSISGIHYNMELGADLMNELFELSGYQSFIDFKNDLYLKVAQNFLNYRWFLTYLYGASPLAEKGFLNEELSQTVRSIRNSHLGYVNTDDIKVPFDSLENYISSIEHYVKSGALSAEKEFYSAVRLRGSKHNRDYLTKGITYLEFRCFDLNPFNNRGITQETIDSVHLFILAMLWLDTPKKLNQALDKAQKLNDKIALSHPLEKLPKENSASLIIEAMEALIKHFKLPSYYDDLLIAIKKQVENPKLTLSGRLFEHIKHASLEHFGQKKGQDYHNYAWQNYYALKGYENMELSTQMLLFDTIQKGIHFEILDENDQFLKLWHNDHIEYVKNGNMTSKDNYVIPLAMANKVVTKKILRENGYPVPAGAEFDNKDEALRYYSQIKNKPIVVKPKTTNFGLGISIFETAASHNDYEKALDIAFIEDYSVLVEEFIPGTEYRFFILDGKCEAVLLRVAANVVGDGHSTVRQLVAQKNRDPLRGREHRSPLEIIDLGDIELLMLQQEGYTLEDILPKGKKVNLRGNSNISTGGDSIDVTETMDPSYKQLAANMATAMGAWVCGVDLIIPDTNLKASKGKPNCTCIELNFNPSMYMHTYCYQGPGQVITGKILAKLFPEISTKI
Chain of E. coli γ-GCS (P0A6W9 whole entry): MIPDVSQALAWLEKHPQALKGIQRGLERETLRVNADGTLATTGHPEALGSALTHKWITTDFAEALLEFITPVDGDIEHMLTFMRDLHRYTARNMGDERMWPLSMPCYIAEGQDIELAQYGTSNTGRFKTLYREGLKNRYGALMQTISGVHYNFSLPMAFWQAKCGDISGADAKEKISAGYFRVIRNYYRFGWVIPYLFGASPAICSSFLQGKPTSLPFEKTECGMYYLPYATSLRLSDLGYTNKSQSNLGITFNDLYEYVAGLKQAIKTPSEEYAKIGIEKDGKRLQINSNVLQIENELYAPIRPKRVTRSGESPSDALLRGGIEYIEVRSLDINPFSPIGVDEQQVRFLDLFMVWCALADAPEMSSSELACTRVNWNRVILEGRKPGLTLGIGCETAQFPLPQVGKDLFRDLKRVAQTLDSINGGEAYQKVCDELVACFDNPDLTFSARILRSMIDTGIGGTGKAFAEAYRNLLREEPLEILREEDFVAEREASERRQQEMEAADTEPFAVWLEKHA

N[C@@H](CCC(=O)N[C@@H](CS)C(=O)O)C(=O)O [L-γ-glutamyl-L-cysteine]
Vmax (E. coli GS): 650 units/mg | Km (E. coli GS): 2600 µM

N[C@@H](CCC(=O)N[C@@H](CS)C(=O)NCC(=O)O)C(=O)O [GSH, L-γ-glutamyl-L-cysteinylglycine, reference compound]
inhibition of GS activity (S. agalactiae γ-GCS-GS [1]): does not significantly inhibit | Ki (S. mutans γ-GCS-GS): 67 ± 0.8 mM | Ki (E. coli γ-GCS; read-out: Ki): 2.7 mM | Ki (Human γ-GCS): 5.8 mM | Ki (E. faecalis γ-GCS-GS): 25.1 ± 0.8 mM | Ki (S. agalactiae γ-GCS-GS [2]): no inhibition

S. mutans γ-GCS-GS (Streptococcus mutans UA159)
Km (N[C@@H](CS)C(=O)O): 144 ± 4 µM

NCC(=O)O [glycine]
Vmax (E. coli GS): 650 units/mg | Km (E. coli GS): 2000 µM | Vmax (Rat GS): 678 units/mg | Km (Rat GS; substrate Km): 913 µM | Vmax (Human GS): 361 ± 84 units/mg | Km (Human GS; substrate Km): 1300 ± 300 µM

CS(=N)(=O)CC[C@H](N)C(=O)O (mixture of isomers) [L-Methionine-S,R-sulfoximine]
Ki (S. agalactiae γ-GCS-GS [2]): > 100 mM | inhibition of the γ-GCS activity (in words) (S. agalactiae γ-GCS-GS [2]; [3]): no significant inhibition

CP(=O)(O)CCC(N)C(=O)O.N (centres unmarked) [glufosinate (ammonium salt), glufosinate ammonium]
inhibition of the γ-GCS activity (in words) (S. agalactiae γ-GCS-GS [2]; [3]): moderately good inhibitors | Ki (S. agalactiae γ-GCS-GS [2]; inhibition of γ-GCS activity, initial reversible binding, read-out: Ki): 29 mM

NCCSSCCN [Cystamine, reference compound]
Ki (E. coli γ-GCS): no inhibition | Ki (Human γ-GCS): 2 mM | inhibition of γ-GCS activity (S. agalactiae γ-GCS-GS [2]): no reproducibly measurable inhibition | Ki (S. agalactiae γ-GCS-GS [2]; inhibition of γ-GCS activity, initial reversible binding): no inhibition

N[C@@H](CCC(=O)O)C(=O)O [L-glutamate]
Km (S. mutans γ-GCS-GS; substrate Km, γ-GCS activity): 17000 ± 1000 µM | Km (E. coli γ-GCS): 1900 ± 200 µM | Vmax (E. coli γ-GCS): 3170 ± 125 units/mg | Km (Human γ-GCS): 1900 ± 200 µM | Vmax (Human γ-GCS): ~1500 units/mg | Vmax (Human γ-GCSc): ~1250 units/mg | Km (Human γ-GCSc): 3200 ± 100 µM | Km (E. faecalis γ-GCS-GS; substrate Km, γ-GCS activity): 79000 ± 14000 µM | Km (S. agalactiae γ-GCS-GS [2]): 23000 ± 2000 µM | Vmax (S. agalactiae γ-GCS-GS [2]; γ-GCS activity): 1341 ± 145 units/mg

NC(CCP(=O)(O)O)C(=O)O (racemic) [D,L-2-amino-4-phosphonobutyric acid]
Ki (S. agalactiae γ-GCS-GS [2]): 13 mM | inhibition of the γ-GCS activity (in words) (S. agalactiae γ-GCS-GS [2]; [3]): moderately good inhibitors

NC(CCCP(=O)(O)O)C(=O)O (racemic) [D,L-2-amino-5-phosphonovaleric acid]
Ki (S. agalactiae γ-GCS-GS [2]): > 100 mM | inhibition of the γ-GCS activity (in words) (S. agalactiae γ-GCS-GS [2]): not effective

N[C@@H](CS)C(=O)O [L-cysteine]
Vmax (E. coli γ-GCS): 3590 ± 200 units/mg | Km (Human γ-GCS): 100 ± 20 µM | Vmax (Human γ-GCS): ~1500 units/mg | Vmax (Human γ-GCSc): ~1250 units/mg | Km (Human γ-GCSc): 130 ± 10 µM

CC[C@H](N)C(=O)O [L-α-aminobutyrate]
Km (E. coli γ-GCS): 3900 ± 400 µM | Vmax (E. coli γ-GCS): 2970 ± 120 units/mg | Km (Human γ-GCS): 1300 µM | Vmax (Human γ-GCS): ~1500 units/mg | Vmax (Human γ-GCSc): ~1250 units/mg | Km (Human γ-GCSc): 1700 µM | Km (S. agalactiae γ-GCS-GS [2]; substrate Km, γ-GCS activity): 8300 ± 1000 µM | Vmax (S. agalactiae γ-GCS-GS [2]; γ-GCS activity): 1148 ± 73 units/mg
